{"source": "patent US6630179B1", "about": "(priority 1998, dated 2003)", "key": {"[1]": {"system": "Newcastle disease", "assay_type": "in vivo, Ross 308 broiler chickens", "conditions": "Baytril 10 mg/kg/day for 3 days in first week, one day at 21 days of age; day 28 and 42"}, "[2]": {"conditions": "dog, in vivo", "procedure": "All animals were euthanased after the 90-day period and a comprehensive post mortem examination, as well as a histopathological evaluation of an extensive list of organs, was performed."}, "[3]": {"conditions": "rat, in vivo"}, "[4]": {"assay": "Study 1511: Subchronic oral toxicity in rats (90 day study)", "conditions": "rat, in vivo"}, "[5]": {"system": "HIV-1 D isolate", "assay": "HIV-1 D isolate viral growth, different research group, compared to AZT", "assay_type": "cell-based", "conditions": "HIV-1 D isolate (second-named isolate)"}, "[6]": {"system": "HIV-1 IIIB laboratory strain", "assay": "HIV-1 IIIB viral growth, different research group, compared to AZT", "assay_type": "cell-based", "conditions": "HIV-1 IIIB (first-named isolate)"}}, "note": "Where two headings read alike, the source gives them in different places."}
{"compound": "CCN1CCN(c2cc3c(cc2F)c(=O)c(C(=O)O)cn3C2CC2)CC1", "note": "[Baytril]", "values": [{"measurement": "titers against Newcastle disease", "setting": "[1]", "value": "two to four fold increase"}]}
{"compound": "Potassium oxihumate", "values": [{"measurement": "overall toxicity assessment", "setting": "[2]", "value": "low toxicity"}, {"measurement": "post mortem and histopathological evaluation", "setting": "[2]", "value": "did not induce any measurable pathology at the macroscopic and microscopic level"}, {"measurement": "clinical signs of toxicity", "setting": "[2]; 1200 mg/kg/day", "value": "did not induce marked clinical signs of toxicity"}, {"measurement": "clinical pathological parameters", "setting": "[2]; po", "value": "some, but usually small, effects"}, {"measurement": "blood chemistry and body masses", "setting": "[2]; po, 1200 mg/kg/day", "value": "Slight alterations in blood chemistry and slight decrease in body masses"}, {"measurement": "acid-base status", "setting": "[3]", "value": "very low grade acid-base disturbance"}, {"measurement": "chemical pathology parameters", "setting": "[3]", "value": "altered some of the chemical pathology parameters"}, {"measurement": "overall toxicity assessment", "setting": "[3]; 1000 mg/kg/day", "value": "does not appear to have any serious deleterious effect"}, {"measurement": "pathology, body masses and organ masses compared to the control animals", "setting": "[3]; 1000 mg/kg/day", "value": "no differences"}, {"measurement": "end body mass of male treated animals", "setting": "[4]", "value": "statistically significant decrease"}, {"measurement": "circulating lymphocytes", "setting": "[4]; po", "value": "decline"}, {"measurement": "clinical signs", "setting": "[4]; po", "value": "No abnormal clinical signs were observed"}, {"measurement": "pathology and organ masses compared to the control animals", "setting": "[4]; po", "value": "no notable differences"}, {"measurement": "serum globulins", "setting": "[4]; po", "value": "consistent increase"}, {"measurement": "serum inorganic phosphate", "setting": "[4]; po", "value": "decrease"}, {"measurement": "size and haemoglobinization of the red blood cells", "setting": "[4]; po", "value": "drug-related increase"}, {"measurement": "blood chemistry and body masses", "setting": "[4]; po, 1000 mg/kg/day", "value": "Slight alterations in blood chemistry and slight decreases in body masses"}]}
{"compound": "Cc1cn([C@H]2C[C@H](N=[N+]=[N-])[C@@H](CO)O2)c(=O)[nH]c1=O", "note": "[AZT]", "values": [{"measurement": "AZT concentration giving the same level of viral growth as oxihumate 25 μg/ml", "setting": "[5]", "value": 12.5, "unit": "µM"}, {"measurement": "AZT concentration giving the same level of viral growth as oxihumate 25 μg/ml", "setting": "[6]", "value": 0.3, "unit": "µM"}]}
